According to ChEMBL document CHEMBL5143571, “Design, synthesis and anti-breast cancer evaluation of biaryl pyridine analogues as potent RSK inhibitors” (Bioorg Med Chem Lett, 2022):
The source made the active and inactive calls. The rule behind the calls is not given here.

Assays:
HCC1806 [1] = assay: Anti-tumor activity against human HCC1806 cells assessed as inhibition of cell proliferation; format: functional, cell-based
HCC1806 [2] = assay: Inhibition of RSK in human HCC1806 cells assessed as reduction in YB-1 phosphorylation at Ser102 residue at 5 uM incubated for 12 hrs by western blot analysis; format: cell-based

Row | SMILES | Activity (HCC1806 [1]) | inhibition (HCC1806 [2])
1 | Cc1ccc(-c2ccncc2-c2ccc(O)c(O)c2)c2ccccc12 | Active | Active
2 | CN1CCN(c2ccc(-c3ccncc3-c3cc(F)c(O)c(F)c3)cc2)CC1 | Active | Active
3 | O=Cc1ccc(-c2ccncc2-c2ccc(OCc3ccccc3)c(OCc3ccccc3)c2)cc1 |  | Active
4 | Cc1cc(C)cc(-c2ccncc2-c2ccc(O)c(O)c2)c1 |  | Active
5 | Clc1ccc(-c2ccncc2-c2ccc(OCc3ccccc3)c(NCc3ccccc3)c2)cc1 |  | Active
